The values that follow come from article PMC4521150, “Discovery of Novel Inhibitors and Fluorescent Probe Targeting NAMPT” (Scientific Reports, 2015).

Read-outs that look alike come from different tables or passages of the source.

One data set has as its target T1, recombinant human NAMPT (Homo sapiens, UniProt P43490).
T1 construct: His tag (N); made in house; host or cells: E. coli BL21-CodonPlus (DE3)-RIL, pET21a+ vector
The data set can be described thus: NAMPT activity assay, IC50 determination (fluorometric detection of NMN derivative). Conditions: molecular/biochemical assay, read-out: IC50 (NAMPT inhibition). From the text: Using our previously established high throughput screening (HTS) platform and recombinant human NAMPT[14][15], we performed a HTS on a chemical library containing 30000 small-molecules (Chemdiv, CA, USA). Our HTS targeting NAMPT was developed based on a fluorometric method for NAMPT activity assay by measuring the fluorescence of nicotinamide mononucleotide (NMN) derivative resulting from the NAMPT enzymatic product NMN through simple chemical reactions (Fig. 1A). […] These fluorescent and non-fluorescent compounds were further studied separately.
HTS was performed using our previously reported method. 0.5 μl stock of each compound (1 mM DMSO stock) was transferred to a 96-well PCR plate for screening. In the primary screening, 5 ng NAMPT in 20 μl reaction buffer [0.4 mM phosphoribosylpyrophosphate (PRPP, Sigma), 2 mM ATP, 0.02% BSA, 2 mM DTT, 12 mM MgCl2 and 50 mM Tris-HCl (pH = 7.5)] was added into each well, the plate was incubated at 37 °C for 5 min, then 4.5 μl substrate of NAM was added to initiate the enzyme reaction, resulting in a final concentration of 2% DMSO, 2 μg/ml NAMPT, 0.2 μM NAM and 20 μM compound. After reacting at 37 °C for 15 min, the enzyme reaction was terminated by heating at 95 °C for 1 min and cooling in an ice bath. The product of NMN was detected through the following approach: after adding 10 μl 20% acetophenone in DMSO and 10 μl 2 M KOH into each well, the mixture was vortex-mixed and kept in ice bath for 2 min. […] Finally, 85 μl mixtures in each well were transferred into a flat-bottom 96-well black plate (Greiner), and the fluorescence (F) was measured using a Tecan Infinity M200 plate reader (Tecan Group Ltd.) by setting the excitation and emission wavelength to 382 nm and 445 nm respectively. The last row of each 96-well plate includes six wells of background controls and six wells of reference controls. The relative enzyme activity (Activity%) regulated by specific compound was calculated according to equation (1): […]
To determine the IC50 of inhibitors, 0.5 μl compound stocks with various concentrations were added into 96-well plate. The plate was incubated at 37 °C for 5 min after addition of 20 μl reaction buffer containing NAMPT. […] The IC50 values were determined by non-linear fitting of the concentration-dependent curves with the four-parameter IC50 logistic equation.

The test system of a further data set is HepG2 cells. The data set can be described thus: Cell viability assay (CCK-8) in HepG2 cells. In kind it is cell-based, human. Conditions: for IC50: HepG2, 48 h, CCK-8, read-out: IC50 for inhibitory effect on HepG2 cell viability. How it is done: (§1) Cell viability was determined by our previous method[27] using the Cell Counting Kit-8 (CCK-8, Dojindo, Japan). In human hepatocellular carcinoma cell line HepG2, cells were seeded in 96-well plate and starved for over 12 h with serum-free DMEM at 60~70% confluency, then treated with compounds or vehicle for 48 h. To determine the IC50 values of inhibitors, compounds with various concentrations were added into the 96-well plate. 10 μl CCK-8 solution was added to the culture medium and incubated at 37 °C for 1 h. The absorbance at 450 nm (A450) was detected by a plate reader. Each experiment was carried out in triplicate in three replicate wells. The IC50 values were determined by non-linear fitting of the concentration-dependent curves with the four-parameter IC50 logistic equation.

Data set [1] has as its system primary mouse hepatocytes. Nature of the data set: Cell viability of primary hepatocytes from normal mice. In kind it is cell-based. Conditions: 30 μM. On the procedure: as §1
(§2) Hepatocytes were isolated from mouse liver by the two-step collagenase perfusion method. […] For imaging experiment, 1 × 10^5 cells were plated in a 35-mm glass bottom dishes or 5 × 10^4 were plated in 48-well plate for cell viability assay in DMEM supplemented with 10% FBS and antibiotics, and kept under an atmosphere of 95% air and 5% CO2 at 37 °C.

The next data set deals with HepG2 NAD levels. Nature of the data set: Cellular NAD measurement (enzymatic cycling assay) in HepG2 cells. In kind it is cell-based, human. On the procedure: Cellular level of NAD was measured by spectrophotometric enzymatic cycling assay, as described previously. Briefly, cells were seeded in 96-well plate and starved for over 12 h with serum-free DMEM at 60~70% confluency, following by treatment with compounds or vehicle for 24 h. Cells were lysed with 50 μl of 1M HClO4 on ice for 30 min. The lysates were cleared by centrifuging at 4 °C at 18,000 × g for 5 min, and cleared lysates (40 μl) were neutralized by adding 1M K2CO3 (16 μl) and incubation on ice for 20 min. After centrifuging for 10 min, 10 μl of supernatant were mixed with reaction buffer [50 mM Tris-HCl (pH 7.5), 3% ethanol, 1.66 mM PES (phenazineethosulfate), 0.42 mM MTT (3-(4,5-dimethylthiazolyl-2)-2,5-diphenyltetrazolium bromide), 90 μg/ml ADH] in a total volume of 100 ul, and incubated at 37 °C for 40 min. The absorbance at 570 nm was determined. A blank measurement without ADH was also carried out. Each experiment was carried out in triplicate in three replicate wells

Data set [2] has as its system primary mouse hepatocytes. The data set can be described thus: Live cell fluorescence imaging in primary mouse hepatocytes (wild type vs NAMPT over expression transgenic). It is filed as cell-based. Conditions: hepatocytes of NAMPT over expression transgenic vs wild type mice, 3 μM. On the procedure:
as §2
For imaging experiment, HepG2 cells or primary hepatocytes were seeded into 35-mm glass bottom dishes (In Vitro Scientific). The following day, compounds were added to the medium at a final concentration of 3 μM. After 30 minutes, cells were rinsed twice with PBS (pH 7.5), then incubated in fresh culture medium and imaged on a fluorescence microscope (IX-71, Olympus) with a digital camera (Olympus). After 4 hours, these cells were imaged once again. Digital images were recorded and analyzed using ImageJ.

T1 sequence (P43490 whole entry): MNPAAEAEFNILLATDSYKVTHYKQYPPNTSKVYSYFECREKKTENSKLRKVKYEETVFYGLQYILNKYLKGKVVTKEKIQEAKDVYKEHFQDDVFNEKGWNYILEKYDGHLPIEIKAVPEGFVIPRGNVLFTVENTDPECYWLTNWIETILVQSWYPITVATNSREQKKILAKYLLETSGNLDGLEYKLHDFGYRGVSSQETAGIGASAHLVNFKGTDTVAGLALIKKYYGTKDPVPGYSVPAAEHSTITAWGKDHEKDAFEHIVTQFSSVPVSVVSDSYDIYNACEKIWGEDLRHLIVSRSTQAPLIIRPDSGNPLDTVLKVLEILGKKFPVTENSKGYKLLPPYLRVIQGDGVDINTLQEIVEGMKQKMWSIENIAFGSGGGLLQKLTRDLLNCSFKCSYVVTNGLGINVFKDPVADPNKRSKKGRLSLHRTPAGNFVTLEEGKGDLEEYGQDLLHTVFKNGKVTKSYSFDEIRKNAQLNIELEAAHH

Regarding `CCCn1c(=O)c(-c2ccc(C(=O)NCc3cccnc3)cc2)nc2ccccc21` [M049-0244], the IC50 (usually the midpoint of a concentration-inhibition curve) was 170 ± 12 nM on recombinant human NAMPT; approximately 2000 nM in the data set with HepG2 cells; 1950 ± 170 nM with HepG2 cells (Homo sapiens); 17.6 nM with HepG2 NAD levels (Homo sapiens, HepG2, 24 hours treatment, read-out: IC50 for reducing NAD level). For the same compound, the “Rescue of cell viability by exogenous NMN” value in the data set with HepG2 cells (HepG2, 3 μM compound, NMN at 300 μM) is given as “totally rescued”. In the data set with HepG2 cells (two concentrations (1 and 10 μM)), the “Effect on HepG2 cell viability at 1 and 10 μM” value is reported as “significant inhibition on HepG2 cell viability in a dose dependent manner”. In addition, the “Inhibition of normal hepatocytes viability” value in data set [1] was ~ 20%. The “Decrease of cellular NAD level” value with HepG2 NAD levels (HepG2, 1 μM, 24 hours) is reported as ~ 80%. The “Cellular fluorescence intensity with NAMPT over expression” value in data set [2] is reported as “increased the cellular fluorescence intensity”.
